Test [1] has as its target T1, human NHE3 (Homo sapiens, UniProt P48764).
T1 sequence (P48764 26-834): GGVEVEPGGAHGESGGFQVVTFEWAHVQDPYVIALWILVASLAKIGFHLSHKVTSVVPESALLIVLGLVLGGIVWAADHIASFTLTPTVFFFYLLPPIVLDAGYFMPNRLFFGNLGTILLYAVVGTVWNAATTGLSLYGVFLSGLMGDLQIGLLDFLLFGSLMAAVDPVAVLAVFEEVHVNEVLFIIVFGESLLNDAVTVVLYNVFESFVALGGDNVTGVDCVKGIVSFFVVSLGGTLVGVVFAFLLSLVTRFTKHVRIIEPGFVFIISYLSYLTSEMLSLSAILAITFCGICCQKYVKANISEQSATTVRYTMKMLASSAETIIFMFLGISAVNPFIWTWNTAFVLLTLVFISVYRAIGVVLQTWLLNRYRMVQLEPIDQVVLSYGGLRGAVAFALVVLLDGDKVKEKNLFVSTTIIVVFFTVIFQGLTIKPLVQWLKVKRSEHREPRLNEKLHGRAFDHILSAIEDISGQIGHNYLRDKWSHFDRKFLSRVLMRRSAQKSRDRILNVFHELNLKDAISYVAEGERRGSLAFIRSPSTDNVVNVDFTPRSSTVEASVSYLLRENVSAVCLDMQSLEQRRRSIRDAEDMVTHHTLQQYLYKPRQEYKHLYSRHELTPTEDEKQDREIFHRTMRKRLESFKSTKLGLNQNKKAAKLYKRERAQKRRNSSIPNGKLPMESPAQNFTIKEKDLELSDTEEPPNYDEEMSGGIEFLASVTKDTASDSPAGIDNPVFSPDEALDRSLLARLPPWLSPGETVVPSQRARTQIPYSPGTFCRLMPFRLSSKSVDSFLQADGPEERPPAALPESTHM
The experiment in a line: Cell-based assay of NHE-3 activity (persistent inhibition), human. To be noted: PS120 fibroblasts stably expressing human NHE3, 60 min incubation then washout; for IC50: read-out: pIC50 (human Persistence assay) (converted). The protocol: The ability of compounds to inhibit human and rat NHE-3-mediated Na^+-dependent H^+ antiport after application and washout was measured using a modification of the pH sensitive dye method described above. PS120 fibroblasts stably expressing human NHE3 were obtained from Mark Donowitz (Baltimore, Md.). Opossum kidney (OK) cells were obtained from the ATCC and propagated per their instructions. The rat NHE-3 gene was introduced into OK cells via electroporation, and cells were seeded into 96 well plates and grown overnight. Medium was aspirated from the wells, cells were washed once with NaCl-HEPES buffer (100 mM NaCl, 50 mM HEPES, 10 mM glucose, 5 mM KCl, 2 mM CaCl2, 1 mM MgCl2, pH 7.4), then overlayed with NaCl-HEPES buffer containing 0-30 μM test compound. After a 60 min incubation at room temperature, the test drug containing buffer was aspirated from the cells. Following aspiration, cells were washed once with NaCl-HEPES buffer without drug, then incubated for 30 min at 37° C. with NH4Cl-HEPES buffer (20 mM NH4Cl, 80 mM NaCl, 50 mM HEPES, 5 mM KCl, 2 mM CaCl2, 1 mM MgCl2, pH 7.4) containing 5 μM BCECF-AM. Cells were washed once with Ammonium free, Na^+-free HEPES (100 mM choline, 50 mM HEPES, 10 mM glucose, 5 mM KCl, 2 mM CaCl2, 1 mM MgCl2, pH 7.4) and incubated in the same buffer for 10 minutes at room temperature to lower intracellular pH. NHE-3-mediated recovery of neutral intracellular pH was initiated (10 min after compound washout) by addition of Na-HEPES buffer. […] Changes in intracellular pH were monitored using a FLIPR Tetra® (Molecular Devices, Sunnyvale, Calif.) by excitation at λex 439 to 505 nm, and measuring BCECF fluorescence at λem 538 nm. The initial rate of the fluorescence ratio change was used as a measure of NHE-mediated Na^+/H^+ activity, and reported as the change in fluorescence ratio per minute. Initial rates were plotted as the average 2 or more replicates, and pIC50 values were estimated using GraphPad Prism.

Test [2] addresses T1, human NHE3. Nature of the test: Cell-based assay of NHE-3 activity (human NHE3 inhibition assay). On the set-up: expressed in transfected cells; host or cells: Opossum kidney (OK) cells (ATCC), electroporated. To be noted: OK cells with human NHE-3 gene, BCECF pH recovery, 0-30 μM test compound; read-out: Human NHE3 pIC50 (converted). The method, boiled down: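 Opossum kidney cells electroporated with rat or human NHE-3, loaded with 5 μM BCECF-AM in NH4Cl-HEPES pH 7.4 for 30 min at RT, then acidified 10 min in Na+-free choline HEPES. Na+-dependent pH recovery rates from BCECF fluorescence, averaged over ≥2 replicates, gave pIC50.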

In the case of `CN(C)[C@H]1Cc2c(F)cc(Cl)cc2[C@@H]1Oc1ccc(S(=O)(=O)NCCOCCOCCNC(=O)NCCCCNC(=O)NCCOCCOCCNS(=O)(=O)c2ccc(O[C@H]3c4cc(Cl)cc(F)c4C[C@@H]3N(C)C)cc2)cc1` [Example 25], in test [1], the “% inhibition (human Persistence assay)” value is listed as “C (>70%)” and the IC50 was < 0.1 µM. In addition, the IC50 in test [2] is < 0.1 µM.
With `CN(C)[C@H]1Cc2ccc(F)cc2[C@@H]1Oc1ccc(S(=O)(=O)NCCOCCOCCNC(=O)NCCCCNC(=O)NCCOCCOCCNS(=O)(=O)c2ccc(O[C@H]3c4cc(F)ccc4C[C@@H]3N(C)C)cc2)cc1` [Example 22], in test [1], the “% inhibition (human Persistence assay)” value was “A (NHE3 <40%)”. Also, the IC50 in test [1] is > 1 µM; in test [2], < 0.1 µM.
On to `CN(C)[C@H]1Cc2c(Cl)cc(Cl)cc2[C@@H]1Oc1ccc(S(=O)(=O)NCCOCCOCCNC(=O)C(C)(C)C(=O)NCCOCCOCCNS(=O)(=O)c2ccc(O[C@H]3c4cc(Cl)cc(Cl)c4C[C@@H]3N(C)C)cc2)cc1` [Example 36], for which, in test [1], the “% inhibition (human Persistence assay)” value is on record as “C (>70%)” and the IC50 is 0.1 to 1 µM. In addition, the IC50 in test [2] was < 0.1 µM.
Take `CN(C)[C@H]1Cc2ccccc2[C@@H]1Oc1ccc(S(=O)(=O)NCCOCCOCCNC(=O)NCCCCNC(=O)NCCOCCOCCNS(=O)(=O)c2ccc(O[C@H]3c4ccccc4C[C@@H]3N(C)C)cc2)cc1` [Example 20]: in test [1], the “% inhibition (human Persistence assay)” value is “B (40-70%)” and the IC50 was < 0.1 µM. Moreover, the IC50 in test [2] is < 0.1 µM.
Take `CN(C)[C@H]1Cc2c(Cl)cc(Cl)cc2[C@@H]1Oc1ccc(S(=O)(=O)NCCOCCOCCNC(=O)[C@H](O)[C@@H](O)C(=O)NCCOCCOCCNS(=O)(=O)c2ccc(O[C@H]3c4cc(Cl)cc(Cl)c4C[C@@H]3N(C)C)cc2)cc1` [Example 5, (2R,3R)—N1,N4-bis(2-(2-(2-(4-((1S,2S)-4,6-dichloro-2-(dimethylamino)-2,3-dihydro-1H-inden-1-yloxy)phenylsulfonamido)ethoxy)ethoxy)ethyl)-2,3-dihydroxysuccinamide]: in test [1], the “% inhibition (human Persistence assay)” value is reported as “C (>70%)” and the IC50 was 0.1 to 1 µM. Further, the IC50 in test [2] is < 0.1 µM.
For `CN(C)[C@H]1Cc2ccc(Cl)cc2[C@@H]1Oc1ccc(S(=O)(=O)NCCOCCOCCNC(=O)NCCCCNC(=O)NCCOCCOCCNS(=O)(=O)c2ccc(O[C@H]3c4cc(Cl)ccc4C[C@@H]3N(C)C)cc2)cc1` [Example 21], in test [1], the “% inhibition (human Persistence assay)” value is “C (>70%)” and the IC50 is < 0.1 µM. The IC50 in test [2] was < 0.1 µM.
For the compound `O=C(NCCCCNC(=O)NCCOCCOCCNS(=O)(=O)c1ccc(O[C@H]2c3cc(Cl)cc(Cl)c3C[C@@H]2N2CCCCC2)cc1)NCCOCCOCCNS(=O)(=O)c1ccc(O[C@H]2c3cc(Cl)cc(Cl)c3C[C@@H]2N2CCCCC2)cc1` [Example 15], in test [1], the “% inhibition (human Persistence assay)” value is given as “C (>70%)” and the IC50 is > 1 µM. Moreover, the IC50 in test [2] is > 10 µM.
On to `O=C(NCCCCNC(=O)NCCOCCOCCNS(=O)(=O)c1ccc(O[C@H]2c3cc(Cl)cc(F)c3C[C@@H]2N2CCCCC2)cc1)NCCOCCOCCNS(=O)(=O)c1ccc(O[C@H]2c3cc(Cl)cc(F)c3C[C@@H]2N2CCCCC2)cc1` [Example 24], for which, in test [1], the “% inhibition (human Persistence assay)” value is recorded as “C (>70%)”. Moreover, the IC50 in test [1] and in test [2] was < 0.1 µM in each case.
Turning to `O=C(NCCCCNC(=O)NCCOCCOCCNS(=O)(=O)c1ccc(O[C@H]2c3cc(Cl)cc(F)c3C[C@@H]2N2CC[C@@H](O)C2)cc1)NCCOCCOCCNS(=O)(=O)c1ccc(O[C@H]2c3cc(Cl)cc(F)c3C[C@@H]2N2CC[C@@H](O)C2)cc1` [Example 4, (S,S,R)—N,N′-(10,17-dioxo-3,6,21,24-tetraoxa-9,11,16,18-tetraazahexacosane-1,26-diyl)bis(4-((1S,2S)-6-chloro-4-fluoro-2-((R)-3-hydroxypyrrolidin-1-yl)-2,3-dihydro-1H-inden-1-yloxy)benzenesulfonamide)], in test [1], the “% inhibition (human Persistence assay)” value is given as “B (40-70%)” and the IC50 is < 0.1 µM. The IC50 in test [2] was < 0.1 µM.
As for `O=C(NCCCCNC(=O)NCCOCCOCCNS(=O)(=O)c1ccc(O[C@H]2c3cc(F)ccc3C[C@@H]2N2CCCCC2)cc1)NCCOCCOCCNS(=O)(=O)c1ccc(O[C@H]2c3cc(F)ccc3C[C@@H]2N2CCCCC2)cc1` [Example 23], the “% inhibition (human Persistence assay)” value in test [1] is listed as “C (>70%)”. The IC50 was 0.1 to 1 µM in test [1] and < 0.1 µM in test [2].
For `O=C(NCCCCNC(=O)NCCOCCOCCOCCNS(=O)(=O)c1ccc(O[C@H]2c3ccccc3C[C@@H]2N2CCCCC2)cc1)NCCOCCOCCOCCNS(=O)(=O)c1ccc(O[C@H]2c3ccccc3C[C@@H]2N2CCCCC2)cc1` [Example 16], in test [1], the “% inhibition (human Persistence assay)” value is “B (40-70%)” and the IC50 is > 1 µM. Further, in test [2], the IC50 was < 0.1 µM.
On to `O=C(NCCCCNC(=O)NCCOCCOCCNC(=O)Nc1cccc(O[C@H]2c3ccccc3C[C@@H]2N2CCCCC2)c1)NCCOCCOCCNC(=O)Nc1cccc(O[C@H]2c3ccccc3C[C@@H]2N2CCCCC2)c1` [Example 13, 1-{2-[2-(2-{[(3-{[(1S,2S)-2-(piperidin-1-yl)-2,3-dihydro-1H-inden-1-yl]oxy}phenyl)carbamoyl]amino}ethoxy)ethoxy]ethyl}-3-{4-[({2-[2-(2-{[(3-{[(1S,2S)-2-(piperidin-1-yl)-2,3-dihydro-1H-inden-1-yl]oxy}phenyl)carbamoyl]amino}ethoxy)ethoxy]ethyl}carbamoyl)amino]butyl}urea], for which, in test [1], the “% inhibition (human Persistence assay)” value is “A (NHE3 <40%)” and the IC50 was > 1 µM. The IC50 in test [2] is 0.1 to 10 µM.
Taken in the same sequence, the figures for `O=C(NCCCCNC(=O)NCCOCCOCCNS(=O)(=O)c1ccc(O[C@H]2c3ccccc3C[C@@H]2N2CCCCC2)cc1)NCCOCCOCCNS(=O)(=O)c1ccc(O[C@H]2c3ccccc3C[C@@H]2N2CCCCC2)cc1` [Example 14] were “C (>70%)”, > 1 µM and < 0.1 µM.

The values above are taken from patent US10376481B2, “Compounds and methods for inhibiting NHE-mediated antiport in the treatment of disorders associated with fluid retention or salt overload and gastrointestinal tract disorders” (ARDELYX, INC, priority 2012, dated 2019).
